Test results published in PubChem BioAssay (NCI).
Several values for one entry are separate records, joined by “and”; a condition that tells them apart may be missing. Equal values may be shown once.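 Five compound concentrations were applied to cells in 96-well plates for 48 hours; endpoints were derived by simple linear interpolation of the resulting dose-response curve. GI50 marks 50% less growth. TGI is the concentration that stops growth completely.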

Assays:
Assay in all cases: DTP human tumour cell line panel, 48 h
[1] = tested on: DU-145 prostate
[2] = tested on: OVCAR-8 ovarian
[3] = tested on: PC-3 prostate
[4] = tested on: SNB-19 CNS
[5] = tested on: EKVX NSCLC
[6] = tested on: NCI-H226 lung
[7] = tested on: 786-0 renal
[8] = tested on: SNB-75 CNS
[9] = tested on: SF-295 CNS
[10] = tested on: HOP-62 NSCLC

| SMILES | TGI [1] | GI50 [2] | TGI [2] | TGI [3] | GI50 [4] | TGI [4] | GI50 [5] | TGI [5] | GI50 [6] | TGI [6] | TGI [7] | GI50 [8] | TGI [8] | GI50 [9] | TGI [9] | GI50 [10] | TGI [10] | GI50 [1] | GI50 [3] | GI50 [7] |
| --- | --- | --- | --- | --- | --- | --- | --- | --- | --- | --- | --- | --- | --- | --- | --- | --- | --- | --- | --- | --- |
| CC(=O)O[C@H]1C(=O)O[C@@H]2C[C@H]3C(C)=CC(=O)[C@@H](O)[C@]3(C)[C@H]3[C@@]4(O)OC[C@]32[C@@H]1[C@@H](C)[C@H]4O | 0.176 µM | 0.0266 µM | 1.55 µM and 0.218 µM | 0.137 µM | 0.0138 µM and 0.0382 µM | 0.0995 µM and 0.135 µM | 0.159 µM | 1.12 µM and 0.219 µM | < 0.0205 µM and 0.0366 µM | 0.0775 µM and 0.166 µM | 0.14 µM | < 0.017 µM | 0.104 µM and 0.154 µM | 0.034 µM | 0.291 µM and 0.206 µM | < 0.0122 µM | 0.07 µM and 0.314 µM | – | – | – |
| CCN(CC)CCOc1ccc(/C(=C(\C)Cc2ccc(OC)cc2)c2ccc(OC(=O)NCc3ccccc3)cc2)cc1 | 5.56 µM | 2.38 µM | 5.69 µM | 3.88 µM | 3.5 µM | 11.6 µM | 2.63 µM | 11.5 µM | 4.71 µM | 18.7 µM | 3.04 µM | 2.42 µM | 8.48 µM | 1.75 µM | 3.3 µM | 2.09 µM | 4.87 µM | 2.24 µM | 1.94 µM | 1.64 µM |
| Cc1n[nH]c(=S)n1/N=C/c1ccc(F)c(Oc2ccccc2)c1 | > 100 µM | 35.7 µM | > 100 µM | > 100 µM | 55.9 µM | > 100 µM | 32.8 µM | 99.4 µM | > 100 µM | > 100 µM | > 100 µM | 45.1 µM | > 100 µM | 57.8 µM | > 100 µM | 49.4 µM | > 100 µM | 49.5 µM | 79.6 µM | 42.3 µM |
| COc1cc(/C=C/C(=O)c2ccc(Nc3ncnc4ccccc34)cc2)cc(OC)c1 | 22.2 µM | 3.68 µM | 17.1 µM | 31.6 µM | 9.99 µM | 83.2 µM | 51.9 µM | > 100 µM | 2.45 µM | 8.91 µM | 14.5 µM | 24.1 µM | > 100 µM | 4.31 µM | 29.2 µM | 7.13 µM | 22.1 µM | 6.71 µM | 3.36 µM | 4.2 µM |
| CN[C@]12CC3(C=CC(=O)C=C3)O[C@@]1(Cc1ccc(OC)cc1)N(C)C(=O)N2 | 14.9 µM | 2.53 µM | 21.3 µM | 4.31 µM | 3.63 µM | 14.5 µM | 4.23 µM | 19.1 µM | 3.46 µM | 15.9 µM | 4.12 µM | 10.4 µM | 23.3 µM | 3.74 µM | 13.6 µM | 2.48 µM | 11.2 µM | 4.3 µM | 0.695 µM | 2.03 µM |
| S=c1nc2[nH]ncc2c(N/N=C/c2ccccc2)[nH]1 | > 100 µM | > 100 µM | > 100 µM | > 100 µM | > 100 µM | > 100 µM | > 100 µM | > 100 µM | > 100 µM | > 100 µM | > 100 µM | > 100 µM | > 100 µM | > 100 µM | > 100 µM | > 100 µM | > 100 µM | > 100 µM | > 100 µM | > 100 µM |
| O=C(O)c1ccc2c(c1Nc1ccccc1)C(=O)c1ccccc1C2=O | > 100 µM | 72.6 µM | > 100 µM | > 100 µM | 49.3 µM | > 100 µM | 19.9 µM | > 100 µM | 24.2 µM | > 100 µM | > 100 µM | 46.7 µM | > 100 µM | 20.3 µM | > 100 µM | 35.6 µM | > 100 µM | 82.8 µM | 54.1 µM | 39.4 µM |
| Nc1ncnc2c1nc(-c1ccccc1)n2C1OC(CO)C(O)C1O (stereo unspecified) | > 100 µM | – | > 100 µM | > 100 µM | – | > 100 µM | – | > 100 µM | – | > 100 µM | > 100 µM | – | > 100 µM | – | > 100 µM | – | > 100 µM | – | – | – |
| Cc1cccc2c(N=Nc3ccc(S(N)(=O)=O)cc3)c(O)[nH]c12 | > 25 µM | > 25 µM | > 25 µM | > 25 µM | > 25 µM | > 25 µM | > 25 µM | > 25 µM | > 25 µM | > 25 µM | > 25 µM | > 25 µM | > 25 µM | > 25 µM | > 25 µM | > 25 µM | > 25 µM | > 25 µM | > 25 µM | > 25 µM |
| Cn1cccc1-c1cc(-c2cccs2)[nH]c(=O)c1C#N | > 100 µM | > 100 µM | > 100 µM | > 100 µM | > 100 µM | > 100 µM | 52.3 µM | > 100 µM | > 100 µM | > 100 µM | > 100 µM | 37.7 µM | > 100 µM | > 100 µM | > 100 µM | 83.9 µM | > 100 µM | > 100 µM | > 100 µM | > 100 µM |
| O=C1C(=O)c2ccccc2-c2ccccc21 | 3.07 µM | 0.662 µM | 2.15 µM | 2.79 µM | 1.45 µM | 2.95 µM | 1.81 µM | 3.25 µM | 1.72 µM | 3.18 µM | 3.35 µM | 1.51 µM | 2.9 µM | 1.76 µM | 3.23 µM | 1.72 µM | 5.24 µM | 1.68 µM | 1.31 µM | 1.83 µM |
| CN1CCC[C@@H]1CCO[C@](C)(c1ccccc1)c1ccc(Cl)cc1 | 25.2 µM | 10.8 µM | 24.7 µM | 17 µM | 8.42 µM | 22.2 µM | 10.9 µM | 25.2 µM | 10.5 µM | 25.3 µM | 19.7 µM | 2.29 µM | 12.7 µM | 2.32 µM | 6.43 µM | 10.1 µM | 23.1 µM | 12.6 µM | 4.58 µM | 5.88 µM |
| Cc1c2c(nn1C(=O)c1nn(-c3ccc(Cl)cc3)cc1O)-c1ccccc1CC2 | > 100 µM | 0.0523 µM | > 100 µM | > 100 µM | 0.0446 µM | > 100 µM | 0.0707 µM | > 100 µM | 0.0968 µM | > 25.7 µM | > 64.1 µM | 0.0303 µM | > 100 µM | 0.0119 µM | 0.0548 µM | 0.0432 µM | > 100 µM | 0.0497 µM | 0.0373 µM | 0.319 µM |
| CNNCc1ccc(C(=O)NC(C)C)cc1 | > 500 µM | – | > 500 µM | > 500 µM | – | > 500 µM | – | > 500 µM | > 500 µM | > 500 µM | > 500 µM | > 500 µM | > 500 µM | – | > 500 µM | > 500 µM | > 500 µM | – | – | > 500 µM |
| N#CC(=S)Nc1ccc(Cl)c(Cl)c1 | > 100 µM | – | > 87.1 µM | 44.8 µM | – | > 100 µM | – | 61.1 µM | – | 60.5 µM | > 66.9 µM | – | 74.7 µM | – | 57.8 µM | – | 99.5 µM | – | – | – |
| O=C(O)CC(Nc1ccccc1)C(=O)O (stereo unspecified) | > 100 µM | – | > 100 µM | > 100 µM | – | > 100 µM | – | > 100 µM | – | > 100 µM | > 100 µM | – | > 100 µM | – | > 100 µM | – | > 100 µM | – | – | – |
